Tests used:
[1] = test system: WiDr cells: Colon cancer cells (wildtype SF3B1); assay: Cell viability assay (CellTiter-Glo), WiDr cells; format: cell-based; conditions: 72 hr
Procedure: (§1) Cells are seeded in 96-well plate with 2000 cells/100 uL/well and incubated overnight. Spent media was removed and fresh media containing compound (100 uL/well) with appropriate 9 concentrations are added. Each compound was treated in duplicate or triplicate manner at each concentration. DMSO concentration was adjusted to be 0.1%. Another plate was dedicated as Tz plate which was added 0.1% DMSO in media (100 uL/well) followed by CellTiter-Glo® (Promega corp., 50 uL/well) for ATP measurement as a surrogate of cell viability. Values from this plate are used as Tz. Compound treated plates are incubated for 72 hr at 37 C. Then, CellTiter-Glo® (50 uL/well) was added and ATP level was measured. Values from compound treated wells are used as Ti and DMSO treated wells are used as C.
(§2) Percentage growth inhibition was calculated as:
(§3) [(Ti−Tz)/(C−Tz)]×100 for concentrations for which Ti>/=Tz
(§4) [(Ti−Tz)/Tz]×100 for concentrations for which Ti<Tz.
(§5) *[time zero, (Tz), control growth (C), and test growth in the presence of drug with dose (Ti)] Growth inhibition of 50% (GI50) was calculated from [(Ti−Tz)/(C−Tz)]×100=50, which was the drug concentration resulting in a 50% reduction in the net protein increase in control cells during the drug incubation. The LC50 (concentration of drug resulting in a 50% reduction in the measured value at the end of the drug treatment as compared to that at the beginning) indicating a net loss of cells following treatment was calculated from [(Ti−Tz)/Tz]×100=−50.
(§6) Emax was defined as highest growth inhibition that particular compound achieved in tested dose range.

[2] = test system: WiDr-R cells: Colon cancer cells (chemically-induced SF3B1 mutant which is resistant to E7107 (R1074H mutation)); assay: Cell viability assay (CellTiter-Glo), WiDr-R cells; format: cell-based; conditions: 72 hr
Procedure: as §1, §2, §3, §4, §5, §6

[3] = test system: Panc 05.04 cells: Pancreatic cancer cells (Q699H and K700E mutations in SF3B1); assay: Cell viability assay (CellTiter-Glo), Panc 05.04 cells; format: cell-based; conditions: 72 hr; for Gl50 Panc 05.04: Panc 05.04 pancreatic cancer cells, SF3B1 Q699H and K700E, CellTiter-Glo; for Emax Panc 05.04: highest growth inhibition achieved in tested dose range
Procedure: as §1, §2, §3, §4, §5, §6

[4] = test system: Ad2 pre-mRNA splicing in HeLa nuclear extract; assay: In vitro splicing (biochemical) assay; conditions: in vitro splicing of Ad2 pre-mRNA, 30° C., 90 min, read-out: Biochem IC50
Procedure: In Vitro Splicing (Biochemical) Assay Protocol
Biotin-labeled pre-mRNA of an adenovirus type 2 construct with a deletion of intervening sequence (Ad2)^1 was prepared by in vitro transcription. The Ad2 construct containing Exon 1 (41 nt), Intron (231 nt), and Exon 2 (72 nt) was generated by gene synthesis and cloned into the EcoRI and XbaI sites of pGEM-3Z (Promega) by Genewiz. The plasmid was then linearized by XbaI digestion and purified. In vitro transcription and purification of transcribed pre-mRNA were performed using the MEGAScript T7 kit (Invitrogen) and MEGAclear kit (Invitrogen), respectively, following the manufacturer instructions. The ratio of biotin-16-UTP (Roche) to cold UTP was 1:13 to incorporate approximately two biotin molecules per spliced Ad2 mRNA.
In vitro splicing assay was performed at 30° C. in 25 μL reaction mixtures containing 95 μg HeLa nuclear extract (Promega), 47 nM Ad2 pre-mRNA, 25 U RNasin RNase inhibitor (Promega), 1×SP buffer (0.5 mM ATP, 20 mM creatine phosphate, 1.6 mM MgCl2), and compounds in DMSO (with 1% final concentration of DMSO). After 90 min of incubation, the reaction was stopped by addition of 18 μL of 5M NaCl, and the mixtures were incubated with 10 μL of M-280 streptavidin-coated magnetic beads (Invitrogen) for 30 min at room temperature to capture Ad2 pre- and spliced mRNA. The beads were washed twice with 100 uL buffer containing 10 mM Tris pH=7.5, 1 mM EDTA and 2M NaCl, and then incubated in RNA gel loading buffer containing 95% formamide at 70° C. for 10 min to elute the RNAs. Ad2 RNAs were resolved by 6% TBE-UREA gel, transferred to a nylon membrane, UV cross-linked, and probed with an IR-dye labeled streptavidin (LiCor) using LiCor detection. The amount of spliced RNA was quantified by measuring the band fluorescent intensity using LiCor software.

[5] = test system: reporter gene controlled by human VEGF promoter; conditions: read-out: IC50, inhibition of VEGF-promoted gene expression; cited from earlier work
U251 human glioma cells = U251 human glioma cells in vitro; read-out: IC50, inhibition of glioma cell proliferation; cited from earlier work

SMILES | Gl50 WiDr [1] [nM] | Gl50 WiDr-R [2] [nM] | Gl50 Panc 05.04 [3] [nM] | Emax Panc 05.04 [3] [%] | IC50 [4] [nM] | IC50 [5] [nM] | IC50 (U251 human glioma cells) [nM]
CC[C@H](O)[C@@H](C)[C@H]1O[C@@H]1C[C@H](C)/C=C/C=C(\C)[C@H]1OC(=O)C[C@H](O)CC[C@@](C)(O)[C@@H](OC(=O)N2CC[N+](C)(C3CCCCCC3)CC2)/C=C/[C@@H]1C.[I-] [Cpd. 1] | 1.1 | 368 | 0.6 | −61 | 10 | – | –
CC[C@H](O)[C@@H](C)[C@H]1O[C@@H]1C[C@H](C)/C=C/C=C(\C)[C@H]1OC(=O)C[C@H](O)CC[C@@](C)(O)[C@@H](OC(=O)N2CC[N+](C)(C)CC2)/C=C/[C@@H]1C.[I-] [Cpd. 2] | 8.9 | >1000 | 17.0 | −69 | 50 | – | –
CC[C@H](O)[C@@H](C)[C@H]1O[C@@H]1C[C@H](C)/C=C/C=C(\C)[C@H]1OC(=O)C[C@H](O)CC[C@@](C)(O)[C@@H](OC(=O)N2CC[N+](C)(C(C)C)CC2)/C=C/[C@@H]1C.[I-] [Cpd. 3] | 2.8 | >100 | 16.2 | −66 | 60 | – | –
CC[C@H](O)[C@@H](C)[C@H]1O[C@@H]1C[C@H](C)/C=C/C=C(\C)[C@H]1OC(=O)C[C@H](O)CC[C@@](C)(O)[C@@H](OC(=O)N2CCC[N+](C)(C(C)C)CC2)/C=C/[C@@H]1C.[I-] (some centres unmarked) [Cpd. 10] | 1.9 | >1000 | 1.3 | −65 | 60 | – | –
CC[C@H](O)[C@@H](C)[C@H]1O[C@@H]1C[C@H](C)/C=C/C=C(\C)[C@H]1OC(=O)C[C@H](O)CC[C@@](C)(O)[C@@H](OC(=O)N(C)C2CC[N+](C)(C)CC2)/C=C/[C@@H]1C.[I-] [Cpd. 15] | 117.0 | >1000 | 234.8 | −53 | – | – | –
CC[C@H](O)[C@@H](C)[C@H]1O[C@@H]1C[C@H](C)/C=C/C=C(\C)[C@H]1OC(=O)C[C@H](O)CC[C@@](C)(O)[C@@H](OC(=O)N2C[C@H]3C[C@@H]2C[N+]3(C)C)/C=C/[C@@H]1C.[I-] [Cpd. 16] | >1000 | >1000 | 1746 | −27 | – | – | –
CC[C@H](O)[C@@H](C)[C@H]1O[C@@H]1C[C@@](C)(O)/C=C/C=C(\C)[C@H]1OC(=O)C[C@H](O)CC[C@@](C)(O)[C@@H](OC(=O)N2CC[N+](C)(C3CCCCCC3)CC2)/C=C/[C@@H]1C.[I-] [Cpd. 17] | 64.5 | >1000 | 607.8 | −47 | < 100 | – | –
CCC(=O)C(C)C1OC1CC(C)(O)C=CC=C(C)C1OC(=O)CC(O)CCC(C)(O)C(OC(=O)N2CC[N+](C)(C3CCCCCC3)CC2)C=CC1C.[I-] (centres unmarked) [Cpd. 25] | 5500.0 | >5500 | 10000 | – | – | – | –
CC[C@H](O)[C@@H](C)[C@H]1O[C@@H]1C[C@H](C)/C=C/C=C(\C)[C@H]1OC(=O)C[C@H](O)CC[C@@](C)(OC(=O)N2CC[N+](C)(C3CCCCCC3)CC2)[C@@H](OC(C)=O)/C=C/[C@@H]1C.[I-] [Cpd. 26] | 1491.0 | >10000 | 5305 | – | – | – | –
CC[C@H](O)[C@@H](C)[C@H]1O[C@@H]1C[C@H](C)/C=C/C=C(\C)[C@H]1OC(=O)C[C@H](O)CC[C@@](C)(OC(=O)N2CC[N+](C)(C(C)C)CC2)[C@@H](OC(C)=O)/C=C/[C@@H]1C.[I-] [Cpd. 27] | 6781.0 | >10000 | 1115 | −56 | – | – | –
CC[C@H](O)[C@@H](C)[C@H]1O[C@@H]1C[C@H](C)/C=C/C=C(\C)[C@H]1OC(=O)C[C@H](O)CC[C@@](C)(OC(=O)N2CC[N+](C)(C)CC2)[C@@H](OC(C)=O)/C=C/[C@@H]1C.[I-] [Cpd. 28] | 456.0 | >1000 | 413.3 | −31 | – | – | –
CC[C@H](O)[C@@H](C)[C@H]1O[C@@H]1C[C@@](C)(O)/C=C/C=C(\C)[C@H]1OC(=O)CCCCC[C@@H](OC(=O)N2CC[N+](C)(C3CCCCCC3)CC2)/C=C/[C@@H]1C.[I-] [Cpd. 31] | 3285 | >10000 | 2458 | −22 | – | – | –
CCC(O)C(C)C1OC1CC(C)/C=C/C=C(\C)C1OC(=O)CC(O)CCC(C)(O)C(OC(C)=O)/C=C/C1C (centres unmarked) [Pladienolide B] | – | – | – | – | – | 1.8 | 3.5
